Columns and labels:
human TS = human TS (Homo sapiens, UniProt P04818); assay: Inhibition of human TS; assay type: biochemical
E. coli TS = E. coli TS (Escherichia coli, UniProt P0A884); assay: Inhibition of E. coli TS; assay type: biochemical
T. gondii TS = target: T1, T. gondii TS (Toxoplasma gondii, UniProt Q07422); assay: biochemical
T1 sequence (Q07422 1-610): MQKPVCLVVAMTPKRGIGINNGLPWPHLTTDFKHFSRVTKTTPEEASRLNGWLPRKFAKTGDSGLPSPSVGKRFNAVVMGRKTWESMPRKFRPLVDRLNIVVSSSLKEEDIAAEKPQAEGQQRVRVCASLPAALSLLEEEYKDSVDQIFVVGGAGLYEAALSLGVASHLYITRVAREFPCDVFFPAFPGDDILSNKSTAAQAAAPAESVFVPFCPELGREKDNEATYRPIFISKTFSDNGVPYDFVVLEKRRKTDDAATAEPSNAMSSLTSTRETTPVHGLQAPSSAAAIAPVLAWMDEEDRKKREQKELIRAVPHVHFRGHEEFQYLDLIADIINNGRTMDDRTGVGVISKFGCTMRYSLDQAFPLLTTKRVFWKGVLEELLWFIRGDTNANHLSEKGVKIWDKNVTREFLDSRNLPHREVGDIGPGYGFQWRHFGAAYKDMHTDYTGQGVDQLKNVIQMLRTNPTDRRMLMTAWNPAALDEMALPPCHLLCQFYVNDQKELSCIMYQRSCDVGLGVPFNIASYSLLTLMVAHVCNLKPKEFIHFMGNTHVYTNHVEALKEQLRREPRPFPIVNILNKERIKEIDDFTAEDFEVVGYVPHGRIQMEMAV

human DHFR = target: T2, human DHFR (Homo sapiens, UniProt P00374); assay: Inhibition of human DHFR; assay type: biochemical
T2 sequence (P00374 1-187): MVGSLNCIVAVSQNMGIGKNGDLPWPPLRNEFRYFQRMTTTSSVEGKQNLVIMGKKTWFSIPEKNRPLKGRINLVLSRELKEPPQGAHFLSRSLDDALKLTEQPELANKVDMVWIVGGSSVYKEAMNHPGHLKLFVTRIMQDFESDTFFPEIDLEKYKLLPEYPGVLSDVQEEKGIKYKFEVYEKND

E. coli DHFR = E. coli DHFR (Escherichia coli, UniProt P0ABQ4); assay: Inhibition of E. coli DHFR; assay type: biochemical; details: read-out: % inhibition of E. coli DHFR at the stated concentration
Sequence of E. coli DHFR (P0ABQ4 whole entry): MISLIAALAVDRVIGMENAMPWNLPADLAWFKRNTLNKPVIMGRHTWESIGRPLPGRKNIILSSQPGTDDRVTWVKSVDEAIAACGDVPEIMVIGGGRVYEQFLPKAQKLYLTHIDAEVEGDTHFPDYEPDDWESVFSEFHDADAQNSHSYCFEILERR

T. gondii DHFR = target: T3, T. gondii DHFR (Toxoplasma gondii, UniProt Q07422); assay: biochemical
T3 sequence (Q07422 1-610): T1 sequence (Q07422 1-610)

human FPGS = details: at concentrations up to 1045 µM; cited from earlier work

Sequence of E. coli TS (P0A884 whole entry): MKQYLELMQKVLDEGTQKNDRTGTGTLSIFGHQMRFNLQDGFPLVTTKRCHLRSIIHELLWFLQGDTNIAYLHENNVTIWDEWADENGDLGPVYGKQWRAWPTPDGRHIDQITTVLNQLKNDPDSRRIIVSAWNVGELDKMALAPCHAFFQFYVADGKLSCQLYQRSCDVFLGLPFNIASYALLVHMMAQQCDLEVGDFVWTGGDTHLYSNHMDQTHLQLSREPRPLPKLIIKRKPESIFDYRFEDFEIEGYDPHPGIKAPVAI
Sequence of human TS (P04818 whole entry): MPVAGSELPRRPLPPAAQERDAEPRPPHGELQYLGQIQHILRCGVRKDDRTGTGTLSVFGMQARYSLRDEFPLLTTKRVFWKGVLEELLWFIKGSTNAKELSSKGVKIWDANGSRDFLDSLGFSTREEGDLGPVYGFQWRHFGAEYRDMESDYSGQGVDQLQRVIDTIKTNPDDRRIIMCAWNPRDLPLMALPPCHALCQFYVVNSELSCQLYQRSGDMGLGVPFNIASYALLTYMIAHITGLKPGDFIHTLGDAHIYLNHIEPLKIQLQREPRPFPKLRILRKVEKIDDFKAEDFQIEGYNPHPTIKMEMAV

SMILES	IC50 (human TS) [µM]	IC50 (E. coli TS) [µM]	inhibition at 23 µM (E. coli TS; read-out: % inhibition of E. coli TS at the stated concentration) [%]	IC50 (T. gondii TS) [µM]	inhibition at 23 µM (T. gondii TS; read-out: % inhibition of T. gondii TS at the stated concentration) [%]	IC50 (human DHFR) [µM]	inhibition at 28 µM (E. coli DHFR) [%]	IC50 (T. gondii DHFR) [nM]	Substrate for human FPGS (human FPGS)
COc1ccc(OC)c(Sc2c(C)sc3nc(N)[nH]c(=O)c23)c1 [Compound 8, 2-Amino-5-[(2,5-dimethoxyphenyl)sulfanyl]-6-methylthieno[2,3-d]pyrimidin-4(3H)-one]	4.6	> 23	36	> 23	0	22	0	56	–
Cc1[nH]c2nc(N)[nH]c(=O)c2c1Sc1ccc(C(=O)N[C@@H](CCC(=O)O)C(=O)O)cc1 [Compound 1, N-{4-[(2-amino-6-methyl-4-oxo-4,7-dihydro-3H-pyrrolo[2,3-d]pyrimidin-5-yl)thio]benzoyl}-L-glutamic acid]	–	–	–	–	–	–	–	–	not a substrate

From PMC3892769 (Journal of medicinal chemistry, 2008)
